Like-named read-outs stand apart in the source and are kept apart here.
Experiments:
[1] = biological target: T1, arylhydrocarbon receptor (AhR) (Homo sapiens, UniProt P35869); conditions: cited from earlier work
T1 sequence (P35869 11-848): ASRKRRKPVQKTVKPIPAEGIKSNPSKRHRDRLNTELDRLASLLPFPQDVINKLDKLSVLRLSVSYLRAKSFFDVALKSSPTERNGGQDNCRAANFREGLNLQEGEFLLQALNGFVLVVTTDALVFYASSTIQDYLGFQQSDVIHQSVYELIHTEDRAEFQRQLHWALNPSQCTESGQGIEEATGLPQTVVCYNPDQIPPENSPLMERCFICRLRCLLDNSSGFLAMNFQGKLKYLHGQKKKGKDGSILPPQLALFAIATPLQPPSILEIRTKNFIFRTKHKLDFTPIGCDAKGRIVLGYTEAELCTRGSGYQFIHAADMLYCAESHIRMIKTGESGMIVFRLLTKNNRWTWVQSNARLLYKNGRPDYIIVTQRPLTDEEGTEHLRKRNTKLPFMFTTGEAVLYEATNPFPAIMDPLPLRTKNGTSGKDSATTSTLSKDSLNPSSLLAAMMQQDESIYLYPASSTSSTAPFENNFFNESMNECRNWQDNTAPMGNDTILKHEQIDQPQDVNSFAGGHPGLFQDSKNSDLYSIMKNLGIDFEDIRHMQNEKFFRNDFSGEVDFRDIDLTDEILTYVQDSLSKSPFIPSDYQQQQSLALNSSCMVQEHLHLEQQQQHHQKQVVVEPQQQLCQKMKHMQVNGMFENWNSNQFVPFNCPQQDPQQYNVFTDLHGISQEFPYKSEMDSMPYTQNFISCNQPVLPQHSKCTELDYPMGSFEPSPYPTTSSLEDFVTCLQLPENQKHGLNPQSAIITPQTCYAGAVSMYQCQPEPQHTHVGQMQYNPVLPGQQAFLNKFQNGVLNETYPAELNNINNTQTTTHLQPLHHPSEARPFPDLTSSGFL

UV-induced erythema = test: In vivo photoprotection proof of concept: UVB irradiation of treated skin sites, erythema assessment; set-up: species or system human; conditions: one Skin Type IV subject
From the text: The Malassezin 1% formulation used in this study contained the following ingredients: Water (aqua)—65.939%; Dimethyl isosorbide—20.000%; Olive Oil Glycereth-8 Esters—3.000%; Glycerin—2.991%; Coconut Alkanes—2.700%; Hydroxyethyl Acrylate/Sodium Acryloyldimethyl Taurate Copolymer—1.700%; Malassezin—1.000%; Pentylene Glycol—1.000%; Phenoxyethanol—0.640%; Coco-Caprylate/Caprate—0.300%; Caprylyl Glycol—0.200%; Chlorphenesin—0.160%; Sorbitan Isostearate—0.140%; Tocopherol—0.100%; Polysorbate 60-0.080%; and Disodium EDTA—0.050%.
A Skin Type IV […] was included in this Proof of Concept study.
A template of 6 squares was placed on the lower left back (1.5 cm×1.5 cm) of the test subject.
Twenty-four hours after irradiation, the subject returned for MED assessment.
A second right lower square was treated twice daily from day 4 to day 7, and a third medial square for one application on day 7. The product vehicle was applied for 7 days twice daily on the left back. The subject returned to the research center for irradiation on day 7. Each test site was irradiated with 120 mJ of UVB exposure. The subject returned in 24 hours for assessment of phototoxicity/photoprotection.
The subject continued the experiment, receiving Malassezin 1% for a total of 14 days. […]

[2] = cited from earlier work; for sun protection factor (SPF): cream
[3] = tested on: Candida albicans and staphylococci; conditions: cited from earlier work

Structure (SMILES) | AhR agonist activity [1] | UV-protective properties (conclusion of study) (UV-induced erythema) | sun protection factor (SPF) ([2]; pityriacitrin concentration 1.25%) | sun protection factor (SPF) ([2]; pityriacitrin concentration 2.5%) | sun protection factor (SPF) ([2]; pityriacitrin concentration 5%) | UV protective effect overall ([2]; in vitro and in vivo test methods in humans) | UV-protective effect on microflora ([3]; Candida albicans and staphylococci) | toxicity to microflora ([3]; ranges tested)
O=C1Nc2ccccc2/C1=C1/Nc2ccccc2C1=O [Indirubin] | known agonist |  |  |  |  |  |  | 
O=Cc1c(Cc2c[nH]c3ccccc23)[nH]c2ccccc12 [Malassezin, 2-(1H-indol-3-ylmethyl)-1H-indole-3-carbaldehyde] | known agonist | UV-protective properties |  |  |  |  |  | 
O=C(c1c[nH]c2ccccc12)c1nccc2c1[nH]c1ccccc12 [Pityriacitrin] |  |  | 1.4 | 1.5 | 1.7 | very weak | UV-protective effect | no toxicity

Reference: patent US20190381004A1, “PHOTOPROTECTIVE COMPOSITIONS CONTAINING MALASSEZIA-DERIVED COMPOUNDS AND/OR CHEMICAL ANALOGS THEREOF” (priority 2018, published 2019)
